# Test system: Matricaria recutita, Diplotaxis tenuifolia, Agrostis spp., Poa annua, or Arabidopsis thaliana
# Test: Plant phenotyping assay (herbicidal phenotypes, 96-well plates); note: key: '+++' is highly active; '++' is moderately active; '+' is weakly active; '−' is inactive
# Type: in vivo
# Settings: visual score of herbicidal phenotypes after seven days; 238, 475, 950, and 1900 g ai/ha (50-400 uM)
# Procedure: Seeds of Matricaria recutita, Diplotaxis tenuifolia, Agrostis spp., Poa annua, or Arabidopsis thaliana were sown into 96-well plates containing 200 μl of growth media [0.5× Murashige and Skoog (MS) basal media (Sigma-Aldrich), 2.5 mM 2-(N-morpholino) ethanesulfonic acid (MES—Sigma-Aldrich), 0.7 g/L Phytagar (Invitrogen); pH 5.7]. Three to five seeds were distributed per well. Plates were placed under fifteen hours of light at 23° C., 65% humidity in a controlled environment growth chamber. After approximately three days, test compounds and controls were mixed with acetone and emulsified with an equal volume of 3% methyl ester of rapeseed oil (Mero), and applied to plants at concentrations of 238, 475, 950, and 1900 g ai/ha (50-400 uM).
row,SMILES,Plant Activity
1,"COc1cnc(OC)n2nc(NS(=O)(=O)c3c(OC4CCN(CCOCCOCCOCCN5CCN(c6ccc7c(c6)C(=O)N(C6CCC(=O)NC6=O)C7=O)CC5)CC4)cccc3C(F)(F)F)nc12 (centres unmarked) [Compound 4-O, N-(5,8-Dimethoxy-[1,2,4]triazolo[1,5-c]pyrimidin-2-yl)-2-((1-(2-(2-(2-(2-(4-(2-(2,6-dioxopiperidin-3-yl)-1,3-dioxoisoindolin-5-yl)piperazin-1-yl)ethoxy)ethoxy)ethoxy)ethyl)piperidin-4-yl)oxy)-6-(trifluoromethyl)benzenesulfonamide]",−
2,"COc1cnc(OC)n2nc(NS(=O)(=O)c3c(OCCOCCN4CCN(c5ccc6c(c5)C(=O)N(C5CCC(=O)NC5=O)C6=O)CC4)cccc3C(F)(F)F)nc12 (centres unmarked) [Compound 4-P, N-(5,8-dimethoxy-[1,2,4]triazolo[1,5-c]pyrimidin-2-yl)-2-(2-(2-(4-(2-(2,6-dioxopiperidin-3-yl)-1,3-dioxoisoindolin-5-yl)piperazin-1-yl)ethoxy)ethoxy)-6-(trifluoromethyl)benzenesulfonamide]",+
3,"COc1cnc(OC)n2nc(NS(=O)(=O)c3c(OCCOCCOCCOCCCN4CCN(c5ccc6c(c5)C(=O)N(C5CCC(=O)NC5=O)C6=O)CC4)cccc3C(F)(F)F)nc12 (centres unmarked) [Compound 4-Q, N-(5,8-Dimethoxy-[1,2,4]triazolo[1,5-c]pyrimidin-2-yl)-2-(2-(2-(2-(3-(4-(2-(2,6-dioxopiperidin-3-yl)-1,3-dioxoisoindolin-5-yl)piperazin-1-yl)propoxy)ethoxy)ethoxy)ethoxy)-6-(trifluoromethyl)benzenesulfonamide]",++
4,"COc1cnc(OC)n2nc(NS(=O)(=O)c3c(OCCOCCOCCOCCOCCCN4CCN(c5ccc6c(c5)C(=O)N(C5CCC(=O)NC5=O)C6=O)CC4)cccc3C(F)(F)F)nc12 (centres unmarked) [Compound 4-R, N-(5,8-Dimethoxy-[1,2,4]triazolo[1,5-c]pyrimidin-2-yl)-2-((15-(4-(2-(2,6-dioxopiperidin-3-yl)-1,3-dioxoisoindolin-5-yl)piperazin-1-yl)-3,6,9,12-tetraoxapentadecyl)oxy)-6-(trifluoromethyl)benzenesulfonamide]",−
5,"COc1cnc(OC)n2nc(NS(=O)(=O)c3c(OCCOCCN4CC(OCCCN5CCN(c6ccc7c(c6)C(=O)N(C6CCC(=O)NC6=O)C7=O)CC5)C(F)(F)C4)cccc3C(F)(F)F)nc12 (centres unmarked) [Compound 4-S, N-(5,8-Dimethoxy-[1,2,4]triazolo[1,5-c]pyrimidin-2-yl)-2-(2-(2-(4-(3-(4-(2-(2,6-dioxopiperidin-3-yl)-1,3-dioxoisoindolin-5-yl)piperazin-1-yl)propoxy)-3,3-difluoropyrrolidin-1-yl)ethoxy)ethoxy)-6-(trifluoromethyl)benzenesulfonamide]",++
6,"CCO/N=C(\CC)C1=C(O)CC(c2ccc(OCCOCCOCCOc3ccc4c(c3)C(=O)N(C3CCC(=O)NC3=O)C4=O)cc2)CC1=O (centres unmarked) [Compound 5, 2-(2,6-dioxo-3-piperidyl)-5-[2-[2-[2-[4-[4-[(E)-N-ethoxy-C-ethyl-carbonimidoyl]-3-hydroxy-5-oxo-cyclohex-3-en-1-yl]phenoxy]ethoxy]ethoxy]ethoxy]isoindoline-1,3-dione]",+
7,"CCC(=O)C1=C(O)CC(c2ccc(OCCOCCOCCN3CCN(c4ccc5c(c4)C(=O)N(C4CCC(=O)NC4=O)C5=O)CC3)cc2)CC1=O (centres unmarked) [Compound 5-A, 2-(2,6-Dioxopiperidin-3-yl)-5-(4-(2-(2-(2-((5′-hydroxy-3′-oxo-4′-propionyl-1′,2′,3′,6′-tetrahydro-[1,1′-biphenyl]-4-yl)oxy)ethoxy)ethoxy)ethyl)piperazin-1-yl)isoindoline-1,3-dione]",−
8,"CCO/N=C(\CC)C1=C(O)CC(c2ccc(OCCOCCOCCN3CCN(c4ccc5c(c4)C(=O)N(C4CCC(=O)NC4=O)C5=O)CC3)cc2)CC1=O (centres unmarked) [Compound 5-B, (E)-2-(2,6-Dioxopiperidin-3-yl)-5-(4-(2-(2-(2-((4′-(1-(ethoxyimino)propyl)-5′-hydroxy-3′-oxo-1′,2′,3′,6′-tetrahydro-[1,1′-biphenyl]-4-yl)oxy)ethoxy)ethoxy)ethyl)piperazin-1-yl)isoindoline-1,3-dione]",+
9,"CCO/N=C(\CC)C1=C(O)CC(c2ccc(OC3CCN(CCOCCOCCOCCN4CCN(c5ccc6c(c5)C(=O)N(C5CCC(=O)NC5=O)C6=O)CC4)CC3)cc2)CC1=O (centres unmarked) [Compound 5-C, (E)-2-(2,6-Dioxopiperidin-3-yl)-5-(4-(2-(2-(2-(2-(4-((4′-(1-(ethoxyimino)propyl)-5′-hydroxy-3′-oxo-1′,2′,3′,6′-tetrahydro-[1,1′-biphenyl]-4-yl)oxy)piperidin-1-yl)ethoxy)ethoxy)ethoxy)ethyl)piperazin-1-yl)isoindoline-1,3-dione]",+
10,"CCO/N=C(\CC)C1=C(O)CC(c2ccc(OCCOCCN3CCC(CCCN4CCN(c5ccc6c(c5)C(=O)N(C5CCC(=O)NC5=O)C6=O)CC4)CC3)cc2)CC1=O (centres unmarked) [Compound 5-D, (E)-2-(2,6-Dioxopiperidin-3-yl)-5-(4-(3-(1-(2-(2-((4′-(1-(ethoxyimino)propyl)-5′-hydroxy-3′-oxo-1′,2′,3′,6′-tetrahydro-[1,1′-biphenyl]-4-yl)oxy)ethoxy)ethyl)piperidin-4-yl)propyl)piperazin-1-yl)isoindoline-1,3-dione]",+
11,"CCOC(=O)[C@@H](C)Oc1ccc(Oc2ccc(OCCOCCOCCOc3ccc4c(c3)C(=O)N(C3CCC(=O)NC3=O)C4=O)cn2)cc1 (stereo partly drawn) [Compound 6, Ethyl (2R)-2-(4-((5-(2-(2-(2-((2-(2,6-dioxopiperidin-3-yl)-1,3-dioxoisoindolin-5-yl)oxy)ethoxy)ethoxy)ethoxy)pyridin-2-yl)oxy)phenoxy)propanoate]",+
12,"CCOC(=O)[C@@H](C)Oc1ccc(Oc2ccc(OCCOCCOCCN3CCN(c4ccc5c(c4)C(=O)N(C4CCC(=O)NC4=O)C5=O)CC3)cn2)cc1 (stereo partly drawn) [Compound 6-A, Ethyl (2R)-2-(4-((5-(2-(2-(2-(4-(2-(2,6-dioxopiperidin-3-yl)-1,3-dioxoisoindolin-5-yl)piperazin-1-yl)ethoxy)ethoxy)ethoxy)pyridin-2-yl)oxy)phenoxy)propanoate]",+
13,"CCOC(=O)[C@@H](C)Oc1ccc(Oc2ccc(OCCOCCN3CCC(CCCN4CCN(c5ccc6c(c5)C(=O)N(C5CCC(=O)NC5=O)C6=O)CC4)CC3)cn2)cc1 (stereo partly drawn) [Compound 6-B, Ethyl (2R)-2-[4-[[5-[2-[2-[4-[3-[4-[2-(2,6-dioxo-3-piperidyl)-1,3-dioxo-isoindolin-5-yl]piperazin-1-yl]propyl]-1-piperidyl]ethoxy]ethoxy]-2-pyridyl]oxy]phenoxy]propanoate]",+
14,"CCOC(=O)[C@@H](C)Oc1ccc(Oc2ccc(OC3CCN(CCOCCOCCOCCN4CCN(c5ccc6c(c5)C(=O)N(C5CCC(=O)NC5=O)C6=O)CC4)CC3)cn2)cc1 (stereo partly drawn) [Compound 6-C, Ethyl (2R)-2-(4-((5-((1-(2-(2-(2-(2-(4-(2-(2,6-dioxopiperidin-3-yl)-1,3-dioxoisoindolin-5-yl)piperazin-1-yl)ethoxy)ethoxy)ethoxy)ethyl)piperidin-4-yl)oxy)pyridin-2-yl)oxy)phenoxy)-propanoate]",−
15,"O=C(COc1ccc(Oc2cncc(C(F)(F)F)c2)cc1)NCCCOCCOCCOCCOCCOc1ccc2c(c1)C(=O)N(C1CCC(=O)NC1=O)C2=O (centres unmarked) [Compound 7, N-[3-[2-[2-[2-[2-[2-(2,6-dioxo-3-piperidyl)-1,3-dioxo-isoindolin-5-yl]oxyethoxy]-ethoxy]ethoxy]ethoxy]propyl]-2-[4-[[5-(trifluoromethyl)-3-pyridyl]oxy]phenoxy]acetamide]",+
16,"O=C(COc1ccc(Oc2cncc(C(F)(F)F)c2)cc1)NCCCOCCOCCOc1ccc2c(c1)C(=O)N(C1CCC(=O)NC1=O)C2=O (centres unmarked) [Compound 7-A, N-(3-(2-(2-((2-(2,6-Cioxopiperidin-3-yl)-1,3-dioxoisoindolin-5-yl)oxy)ethoxy)ethoxy)propyl)-2-(4-((5-(trifluoromethyl)pyridin-3-yl)oxy)phenoxy)acetamide]",−
17,"O=C(COc1ccc(Oc2cncc(C(F)(F)F)c2)cc1)NCCCOCCOCCOCCOc1ccc2c(c1)C(=O)N(C1CCC(=O)NC1=O)C2=O (centres unmarked) [Compound 7-B, N-(3-(2-(2-(2-((2-(2,6-dioxopiperidin-3-yl)-1,3-dioxoisoindolin-5-yl)oxy)ethoxy)ethoxy)ethoxy)propyl)-2-(4-((5-(trifluoromethyl)pyridin-3-yl)oxy)phenoxy)acetamide]",+
18,"O=C(COc1ccc(Oc2cncc(C(F)(F)F)c2)cc1)NCCCOCCOCCOCCOCCOCCOc1ccc2c(c1)C(=O)N(C1CCC(=O)NC1=O)C2=O (centres unmarked) [Compound 7-C, N-(1-((2-(2,6-dioxopiperidin-3-yl)-1,3-dioxoisoindolin-5-yl)oxy)-3,6,9,12,15-pentaoxaoctadecan-18-yl)-2-(4-((5-(trifluoromethyl)pyridin-3-yl)oxy)phenoxy)acetamide]",−
19,"O=C(COc1ccc(Oc2nc3ccc(F)cc3s2)cc1)NCCCOCCOCCOCCOCCOc1ccc2c(c1)C(=O)N(C1CCC(=O)NC1=O)C2=O (centres unmarked) [Compound 8, N-[3-[2-[2-[2-[2-[2-(2,6-dioxo-3-piperidyl)-1,3-dioxo-isoindolin-5-yl]oxyethoxy]-ethoxy]ethoxy]ethoxy]propyl]-2-[4-[(6-fluoro-1,3-benzothiazol-2-yl)oxy]phenoxy]acetamide]",+
20,"O=C(COc1ccc(Oc2nc3ccc(F)cc3s2)cc1)NCCCOCCOCCOc1ccc2c(c1)C(=O)N(C1CCC(=O)NC1=O)C2=O (centres unmarked) [Compound 8-A, N-(3-(2-(2-((2-(2,6-Dioxopiperidin-3-yl)-1,3-dioxoisoindolin-5-yl)oxy)ethoxy)ethoxy)propyl)-2-(4-((6-fluorobenzo[d]thiazol-2-yl)oxy)phenoxy)acetamide]",+

# Source: patent US20240365736A1, “COMPOSITIONS AND METHODS FOR TARGETED DEGRADATION OF PROTEINS IN A PLANT CELL” (Oerth Bio LLC, priority 2021, published 2024)
